For 42 compounds, EC50 results are on record in patent US20260042769A1, “TRIARYL AGONISTS OF ALPHA-2 ADRENERGIC RECEPTORS” (ALCEPTOR THERAPEUTICS, INC., priority 2023, published 2026).

The assay addresses T1, human ADRA2B receptor (Homo sapiens, UniProt P18089).
T1 construct: expressed in transfected cells
T1 sequence (P18089 1-450): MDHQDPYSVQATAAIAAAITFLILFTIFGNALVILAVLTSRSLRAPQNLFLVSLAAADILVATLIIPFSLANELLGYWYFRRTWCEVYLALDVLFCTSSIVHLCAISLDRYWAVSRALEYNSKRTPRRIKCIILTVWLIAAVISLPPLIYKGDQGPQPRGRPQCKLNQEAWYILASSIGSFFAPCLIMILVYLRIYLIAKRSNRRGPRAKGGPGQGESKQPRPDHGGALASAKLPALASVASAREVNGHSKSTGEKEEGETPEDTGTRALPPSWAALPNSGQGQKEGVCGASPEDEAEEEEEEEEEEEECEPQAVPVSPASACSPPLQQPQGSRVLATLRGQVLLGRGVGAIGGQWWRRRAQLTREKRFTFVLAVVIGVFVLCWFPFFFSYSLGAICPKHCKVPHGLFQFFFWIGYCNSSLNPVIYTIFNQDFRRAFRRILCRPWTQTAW
As to the kind of experiment: GTPγS agonist assay, ADRA2B receptor. It is filed as biochemical. As to conditions: read-out: GTPase - Human Alpha2B EC50. A digest of the protocol:
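CHO-K1 membranes stably expressing human ADRA2B (5 μg protein) in 20 mM HEPES, 10 mM MgCl2, 200 mM NaCl with GDP, preincubated 10 min at room temperature with compound. Binding reaction 1 h at 37° C; bound label collected on GF/C filters, washed, read by scintillation counting.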

What is called EC50 is the midpoint of the concentration-response curve. On to `Cc1cccc(C(Cc2cnn(C(C)C)c2)c2c[nH]cn2)c1C` (stereo not drawn) [Compound 277, 4-[2-(4-imidazolyl)-2-(2,3-xylyl)ethyl]-1-isopropylpyrazole], for which the EC50 was in the range of 10 to 50 nM.
As to `COc1cccc(C[C@@H](c2cnc[nH]2)c2cccc(OC)c2C)n1` [Compound 27, 2-[(2R)-2-(1H-imidazol-4-yl)-2-(3-methoxy-2-methylphenyl)ethyl]-6-methoxypyridine], the EC50 was below 10 nM.
In the case of `COc1cccc(C[C@H](c2c[nH]cn2)c2cccc(Cl)c2OC)n1` [Compound 7, 2-[(2S)-2-(3-chloro-2-methoxyphenyl)-2-(1H-imidazol-4-yl)ethyl]-6-methoxypyridine], the EC50 lay in the range of 10 to 50 nM.
As for `c1ccc(C[C@H](c2cnc[nH]2)c2cccc3c2COC3)nc1` [Compound 45, 2-[(2S)-2-(1,3-dihydro-2-benzofuran-4-yl)-2-(1H-imidazol-4-yl)ethyl] pyridine], the EC50 is above 500 nM.
With `Cc1cccc(C(Cc2cscn2)c2c[nH]cn2)c1C` (stereo not drawn) [Compound 118, 4-[2-(4-imidazolyl)-2-(2,3-xylyl)ethyl]-1,3-thiazole] the figure was 10 to 50 nM; with `FC(F)Oc1cccc([C@H](Cc2ccccn2)c2cnc[nH]2)c1` [Compound 37], 10 to 50 nM.
With `c1cnnc(C[C@@H](c2c[nH]cn2)c2cccc3c2CCO3)c1` [Compound 324, 3-[(R)-2-(2,3-dihydro-1-benzofuran-4-yl)-2-(4-imidazolyl)ethyl]pyridazine] the figure was above 500 nM; with `FC(F)(F)c1ccc(C(Cc2cccnn2)c2c[nH]cn2)cc1` (stereo not drawn) [Compound 223, 3-{2-(4-imidazolyl)-2-[p-(trifluoromethyl)phenyl]ethyl}pyridazine], above 500 nM.
As to `Cc1cccc([C@H](Cc2ccon2)c2c[nH]cn2)c1C` [Compound 101, 3-[(S)-2-(4-imidazolyl)-2-(2,3-xylyl)ethyl] isoxazole], the EC50 lay within 50 to 500 nM.
Consider `Cc1cccc(CC(c2cnc[nH]2)c2cccc(C)c2C)n1` (stereo not drawn) [Compound 96, 2-[2-(2,3-dimethylphenyl)-2-(1H-imidazol-4-yl)ethyl]-6-methyl-pyridine], for which the EC50 lay within 10 to 50 nM.
With `Fc1ccc(C(Cc2cccnn2)c2c[nH]cn2)cc1F` (stereo not drawn) [Compound 224, 3-[2-(3,4-difluorophenyl)-2-(4-imidazolyl)ethyl] pyridazine] the figure was above 500 nM.
With `Cc1nnc(CC(c2c[nH]cn2)c2cccc(C)c2C)o1` (stereo not drawn) [Compound 241, 2-[2-(4-imidazolyl)-2-(2,3-xylyl)ethyl]-5-methyl-1,3,4-oxadiazole] the figure was 10 to 50 nM.
With `COc1cccc(C[C@H](c2c[nH]cn2)c2cccc(OC)c2Cl)n1` [Compound 111, 4-[(S)-1-(2-chloro-3-methoxyphenyl)-2-(6-methoxy-2-pyridyl)ethyl] imidazole] the figure was 50 to 500 nM.
Consider `COc1cccc(C[C@@H](c2c[nH]cn2)c2cccc(Cl)c2Cl)n1` [Compound 98, 4-[(R)-1-(2,3-dichlorophenyl)-2-(6-methoxy-2-pyridyl)ethyl] imidazole], for which the EC50 is below 10 nM.
For `COc1cc(OC)nc(CC(c2c[nH]cn2)c2cccc(C)c2C)n1` (stereo not drawn) [Compound 91, 2-[2-(2,3-dimethylphenyl)-2-(1H-imidazol-4-yl)ethyl]-4,6-dimethoxy-pyrimidine], the EC50 is below 10 nM.
With `Cc1cccc(C(Cc2ccnn2C)c2c[nH]cn2)c1C` (stereo not drawn) [Compound 127, 5-[2-(4-imidazolyl)-2-(2,3-xylyl)ethyl]-1-methyl-pyrazole], the EC50 is below 10 nM.
With `FC(F)(F)Oc1ccccc1[C@@H](Cc1ccccn1)c1cnc[nH]1` [Compound 30, 2-[(2R)-2-(1H-imidazol-4-yl)-2-[2-(trifluoromethoxy)phenyl]ethyl] pyridine], the EC50 is above 500 nM.
With `COc1cccc(C[C@@H](c2c[nH]cn2)c2cccc(OC)c2Cl)n1` [Compound 110, 4-[(R)-1-(2-chloro-3-methoxyphenyl)-2-(6-methoxy-2-pyridyl)ethyl] imidazole] the figure was below 10 nM.
With `COc1cc(OC(F)(F)F)cc(C(Cc2ccnc(OC)n2)c2c[nH]cn2)c1` (stereo not drawn) [Compound 204, 4-[2-(4-imidazolyl)-2-(3-methoxy-5-trifluoromethoxyphenyl)ethyl]-2-methoxypyrimidine] the figure was above 500 nM; with `COc1cccc(C[C@H](c2c[nH]cn2)c2cccc(C)c2F)n1` (single isomer, unassigned) [Compound 5], below 10 nM; with `FC(F)(F)Oc1ccc(C(Cc2cccnn2)c2c[nH]cn2)cc1` (stereo not drawn) [Compound 220, 3-[2-(4-imidazolyl)-2-(p-trifluoromethoxyphenyl)ethyl]pyridazine], above 500 nM.
Consider `COc1ncc(C[C@H](c2c[nH]cn2)c2cccc(Cl)c2C)cn1` [Compound 109, 5-[(S)-2-(3-chloro-2-tolyl)-2-(4-imidazolyl)ethyl]-2-methoxy-pyrimidine], for which the EC50 was below 10 nM.
Consider `Cc1cccc(C(Cc2ncco2)c2c[nH]cn2)c1C` (stereo not drawn) [Compound 117, 2-[2-(4-imidazolyl)-2-(2,3-xylyl)ethyl]-1,3-oxazole], for which the EC50 was in the range of 50 to 500 nM.
On to `Cc1cccc([C@H](Cc2cccnn2)c2c[nH]cn2)c1Cl` [Compound 213, 3-[(S)-2-(2-chloro-3-tolyl)-2-(4-imidazolyl)ethyl] pyridazine], for which the EC50 was in the range of 10 to 50 nM.
Regarding `COc1nccc(CC(c2c[nH]cn2)c2cccc(Cl)c2C)n1` (stereo not drawn) [Compound 185, 4-[2-(3-chloro-2-tolyl)-2-(4-imidazolyl)ethyl]-2-methoxypyrimidine], the EC50 was below 10 nM.
The figure for `Cc1nccc(C[C@H](c2cnc[nH]2)c2cccc(C)c2C)n1` [Compound 70, 4-[(2S)-2-(2,3-dimethylphenyl)-2-(1H-imidazol-4-yl)ethyl]-2-methyl-pyrimidine] is below 10 nM; for `COc1ncc(CC(c2c[nH]cn2)c2cccc3c2OCC3)c(OC)n1` (stereo not drawn) [Compound 312, 5-[2-(2,3-dihydro-1-benzofuran-7-yl)-2-(4-imidazolyl)ethyl]-2,4-dimethoxypyrimidine] it is 10 to 50 nM; for `Cc1cccc([C@@H](Cc2ccccn2)c2cnc[nH]2)c1F` [Compound 40, 2-[(2R)-2-(2-fluoro-3-methylphenyl)-2-(1H-imidazol-4-yl)ethyl] pyridine] it is 10 to 50 nM.
Regarding `Cc1cccc(C(Cc2ccnnc2)c2cnc[nH]2)c1C` (stereo not drawn) [Compound 85, 4-[2-(2,3-dimethylphenyl)-2-(1H-imidazol-4-yl)ethyl] pyridazine], the EC50 lay within 10 to 50 nM.
For `COc1ccccc1[C@@H](Cc1ccccn1)c1cnc[nH]1` [Compound 32, 2-[(2R)-2-(1H-imidazol-4-yl)-2-(2-methoxyphenyl)ethyl]pyridine], the EC50 was above 500 nM.
Turning to `Cc1cccc([C@H](Cc2cncs2)c2c[nH]cn2)c1C` [Compound 129, 5-[(S)-2-(4-imidazolyl)-2-(2,3-xylyl)ethyl]-1,3-thiazole], the EC50 is below 10 nM.
The figure for `Cc1cccc(C(Cc2cccc(=O)[nH]2)c2cnc[nH]2)c1C` (stereo not drawn) [Compound 87, 6-[2-(2,3-dimethylphenyl)-2-(1H-imidazol-4-yl)ethyl] pyridin-2-ol] is above 500 nM; for `Cc1cccc([C@H](Cc2cccnn2)c2c[nH]cn2)c1F` [Compound 138, 3-[(S)-2-(2-fluoro-3-tolyl)-2-(4-imidazolyl)ethyl] pyridazine] it is above 500 nM; for `c1ccc(C[C@H](c2cnc[nH]2)c2cccc3c2OCC3)nc1` [Compound 43, 2-[(2S)-2-(2,3-dihydro-1-benzofuran-7-yl)-2-(1H-imidazol-4-yl)ethyl] pyridine] it is above 500 nM.
On to `COc1cccc(C(Cc2cccnn2)c2c[nH]cn2)c1F` (stereo not drawn) [Compound 360, 3-[2-(2-fluoro-3-methoxyphenyl)-2-(4-imidazolyl)ethyl]pyridazine], for which the EC50 was above 500 nM.
As for `Cc1c(Cl)cccc1[C@H](Cc1cccnc1)c1cnc[nH]1` [Compound 62, 3-[(2S)-2-(3-chloro-2-methylphenyl)-2-(1H-imidazol-4-yl)ethyl]pyridine], the EC50 is above 500 nM.
For `COc1cccc(C[C@@H](c2cnc[nH]2)c2cccc3c2OCC3)n1` [Compound 17, 2-[(2R)-2-(2,3-dihydro-1-benzofuran-7-yl)-2-(1H-imidazol-4-yl)ethyl]-6-methoxypyridine], the EC50 lay in the range of 50 to 500 nM.
Consider `Cc1nc(C[C@@H](c2cnc[nH]2)c2cccc(C)c2C)cs1` [Compound 102, 4-[(R)-2-(4-imidazolyl)-2-(2,3-xylyl)ethyl]-2-methyl-1,3-thiazole], for which the EC50 was in the range of 10 to 50 nM.
With `Cc1ccc(C(F)(F)F)cc1C(Cc1cccnn1)c1c[nH]cn1` (stereo not drawn) [Compound 221, 3-{2-(4-imidazolyl)-2-[5-(trifluoromethyl)-2-tolyl]ethyl}pyridazine] the figure was above 500 nM; with `Cc1cccc([C@H](Cc2ccccn2)c2cnc[nH]2)c1F` [Compound 39, 2-[(2S)-2-(2-fluoro-3-methylphenyl)-2-(1H-imidazol-4-yl)ethyl] pyridine], above 500 nM; with `Cc1cccc(C(Cc2ccccn2)c2cnc[nH]2)c1C` (stereo not drawn) [Compound 50, 2-[2-(2,3-dimethylphenyl)-2-(1H-imidazol-5-yl)ethyl] pyridine], above 500 nM.
Turning to `COc1cccc(C[C@@H](c2cnc[nH]2)c2cccc(Cl)c2C)n1` [Compound 15, 2-[(2R)-2-(3-chloro-2-methylphenyl)-2-(1H-imidazol-4-yl)ethyl]-6-methoxypyridine], the EC50 was below 10 nM.
